From patent US10836768B2, “N-acyl-(3-substituted)-(8-substituted)-5,6-dihydro-[1,2,4]triazolo[4,3-a]pyrazines as selective NK-3 receptor antagonists” (OGEDA SA, priority 2013, dated 2020)

Test: Determination of plasma protein binding (equilibrium dialysis)
Assay type: in vitro ADME
Details: bound drug fraction to plasma protein; 4 hours at 37° C.
From the text: Determination of Plasma Protein Binding
The pharmacokinetic and pharmacodynamic properties of chemicals/drugs are largely a function of the reversible binding of chemicals to plasma or serum proteins. […] Consequently, the extent of the plasma protein binding (PPB) of a compound influences its action as well as its distribution and elimination.
The determination of plasma protein binding (PPB) of a compound is enabled by equilibrium dialysis, an accepted and standard method for reliable estimation of the non-bound drug fraction in plasma. RED (Rapid Equilibrium Dialysis) device insert is made of two side-by-side chambers separated by an O-ring-sealed vertical cylinder of dialysis membrane (MWCO ˜8,000). […] After 4 hours incubation at 37° C. under shaking, an aliquot is removed from each chamber and analyzed by a LC-MS/MS procedure enables the determination of both free and bound drug.
The “free fraction” may be calculated as 100%−% rPPB (i.e. the complementary percentage of that disclosed in Table 4, corresponding to the drug concentration that is unbound and therefore available to engage biological target and elicit pharmacological activity).

Row | SMILES | Exposure (% rPPB) [%]
1 | C[C@@H]1c2nnc(-c3nc(CC(F)(F)F)no3)n2CCN1C(=O)c1ccc(F)cc1 [Compound 44, (R)-(4-fluorophenyl)(8-methyl-3-(3-(2,2,2-trifluoroethyl)-1,2,4-oxadiazol-5-yl)-5,6-dihydro-[1,2,4]triazolo[4,3-a]pyrazin-7(8H)-yl)methanone] | 31
2 | CCC1c2nnc(-c3nc(C)ns3)n2CCN1C(=O)c1ccc(F)cc1 (racemic) [Compound 23, (8-ethyl-3-(3-methyl-1,2,4-thiadiazol-5-yl)-5,6-dihydro-[1,2,4]triazolo[4,3-a]pyrazin-7(8H)-yl)(4-fluorophenyl)methanone] | 34
3 | CCc1nsc(-c2nnc3n2CCN(C(=O)c2ccc(F)cc2)C3C)n1 (racemic) [Compound 39, (3-(3-ethyl-1,2,4-thiadiazol-5-yl)-8-methyl-5,6-dihydro-[1,2,4]triazolo[4,3-a]pyrazin-7(8H)-yl)(4-fluorophenyl)methanone] | 43
4 | Cc1nsc(-c2nnc3n2CCN(C(=O)c2ccc(Cl)c(F)c2)C3C)n1 (racemic) [Compound 36, (4-chloro-3-fluorophenyl)(8-methyl-3-(3-methyl-1,2,4-thiadiazol-5-yl)-5,6-dihydro-[1,2,4]triazolo[4,3-a]pyrazin-7(8H)-yl)methanone] | 60
5 | C[C@@H]1c2nnc(-c3nc(C(F)F)ns3)n2CCN1C(=O)c1ccc(F)cc1 [Compound 42, (R)-(3-(3-(difluoromethyl)-1,2,4-thiadiazol-5-yl)-8-methyl-5,6-dihydro-[1,2,4]triazolo[4,3-a]pyrazin-7(8H)-yl)(4-fluorophenyl)methanone] | 16
6 | Cc1nsc(-c2nnc3n2CCN(C(=O)c2ccccc2C)[C@@H]3C)n1 [Compound 26, (R)-(8-methyl-3-(3-methyl-1,2,4-thiadiazol-5-yl)-5,6-dihydro-[1,2,4]triazolo[4,3-a]pyrazin-7(8H)-yl)(o-tolyl)methanone] | 19
7 | Cc1nsc(-c2nnc3n2CCN(C(=O)c2ccc(F)cc2)C3C)n1 (racemic) [Compound 14, (4-fluorophenyl)(8-methyl-3-(3-methyl-1,2,4-thiadiazol-5-yl)-5,6-dihydro-[1,2,4]triazolo[4,3-a]pyrazin-7(8H)-yl)methanone] | 21
8 | Cc1nsc(-c2nnc3n2CCN(C(=O)c2ccc(F)cc2F)[C@@H]3C)n1 [Compound 18, (R)-(2,4-difluorophenyl)(8-methyl-3-(3-methyl-1,2,4-thiadiazol-5-yl)-5,6-dihydro-[1,2,4]triazolo[4,3-a]pyrazin-7(8H)-yl)methanone] | 23
9 | Cc1nsc(-c2nnc3n2CCN(C(=O)c2cc(F)c(F)c(F)c2)[C@@H]3C)n1 [Compound 7, (R)-(8-methyl-3-(3-methyl-1,2,4-thiadiazol-5-yl)-5,6-dihydro-[1,2,4]triazolo[4,3-a]pyrazin-7(8H)-yl)(3,4,5-trifluorophenyl)methanone] | 26
10 | Cc1nsc(-c2nnc3n2CCN(C(=O)c2cc(F)c(F)c(F)c2)C3C)n1 (racemic) [Compound 34, (8-methyl-3-(3-methyl-1,2,4-thiadiazol-5-yl)-5,6-dihydro-[1,2,4]triazolo[4,3-a]pyrazin-7(8H)-yl)(3,4,5-trifluorophenyl)methanone] | 24
11 | C[C@H](F)c1noc(-c2nnc3n2CCN(C(=O)c2ccc(F)cc2)[C@@H]3C)n1 [Compound 45-1] | 27
12 | COc1cc(C(=O)N2CCn3c(-c4nc(C)ns4)nnc3[C@H]2C)ccc1F [Compound 25, (R)-(4-fluoro-3-methoxyphenyl)(8-methyl-3-(3-methyl-1,2,4-thiadiazol-5-yl)-5,6-dihydro-[1,2,4]triazolo[4,3-a]pyrazin-7(8H)-yl)methanone] | 19
13 | Cc1nsc(-c2nnc3n2CCN(C(=O)c2ccc(F)c(F)c2F)C3C)n1 (racemic) [Compound 33, (8-methyl-3-(3-methyl-1,2,4-thiadiazol-5-yl)-5,6-dihydro-[1,2,4]triazolo[4,3-a]pyrazin-7(8H)-yl)(2,3,4-trifluorophenyl)methanone] | 29
14 | Cc1nsc(-c2nnc3n2CCN(C(=O)c2cc(F)c(F)c(F)c2F)[C@@H]3C)n1 [Compound 10, (R)-(8-methyl-3-(3-methyl-1,2,4-thiadiazol-5-yl)-5,6-dihydro-[1,2,4]triazolo[4,3-a]pyrazin-7(8H)-yl)(2,3,4,5-tetrafluorophenyl)methanone] | 30
15 | C[C@@H]1c2nnc(-c3nc(C(C)(F)F)no3)n2CCN1C(=O)c1ccc(F)cc1 [Compound 43, (R)-(3-(3-(1,1-difluoroethyl)-1,2,4-oxadiazol-5-yl)-8-methyl-5,6-dihydro-[1,2,4]triazolo[4,3-a]pyrazin-7(8H)-yl)(4-fluorophenyl)methanone] | 47
16 | CCC[C@@H]1c2nnc(-c3nc(C)ns3)n2CCN1C(=O)c1ccc(F)cc1 [Compound 24, (R)-(4-fluorophenyl)(3-(3-methyl-1,2,4-thiadiazol-5-yl)-8-propyl-5,6-dihydro-[1,2,4]triazolo[4,3-a]pyrazin-7(8H)-yl)methanone] | 48

Row | SMILES | Exposure (% rPPB) [%]
17 | CC[C@@H]1c2nnc(-c3nc(C)ns3)n2CCN1C(=O)c1ccc(F)cc1 [Compound 22, (R)-(8-ethyl-3-(3-methyl-1,2,4-thiadiazol-5-yl)-5,6-dihydro-[1,2,4]triazolo[4,3-a]pyrazin-7(8H)-yl)(4-fluorophenyl)methanone] | 27
18 | Cc1nsc(-c2nnc3n2CCN(C(=O)c2ccc(F)c(F)c2)C3C)n1 (racemic) [Compound 32] | 25
19 | Cc1nsc(-c2nnc3n2CCN(C(=O)c2ccc(C(F)(F)F)cc2)[C@@H]3C)n1 [Compound 21, (R)-(8-methyl-3-(3-methyl-1,2,4-thiadiazol-5-yl)-5,6-dihydro-[1,2,4]triazolo[4,3-a]pyrazin-7(8H)-yl)(4-(trifluoromethyl)phenyl) methanone] | 38
20 | Cc1nsc(-c2nnc3n2CCN(C(=O)c2cccc(Cl)c2)[C@@H]3C)n1 [Compound 16, (R)-(3-chlorophenyl)(8-methyl-3-(3-methyl-1,2,4-thiadiazol-5-yl)-5,6-dihydro-[1,2,4]triazolo[4,3-a]pyrazin-7(8H)-yl)methanone] | 36
21 | Cc1nsc(-c2nnc3n2CCN(C(=O)c2cc(F)c(F)c(F)c2F)C3C)n1 (racemic) [Compound 31, (8-methyl-3-(3-methyl-1,2,4-thiadiazol-5-yl)-5,6-dihydro-[1,2,4]triazolo[4,3-a]pyrazin-7(8H)-yl)(2,3,4,5-tetrafluorophenyl)methanone] | 31
22 | C[C@H](F)c1noc(-c2nnc3n2CCN(C(=O)c2ccc(F)cc2)[C@@H]3C)n1 [Compound 45-2] | 33
23 | Cc1nsc(-c2nnc3n2CCN(C(=O)c2ccc(F)c(Cl)c2)[C@@H]3C)n1 [Compound 6, (R)-(3-chloro-4-fluorophenyl)(8-methyl-3-(3-methyl-1,2,4-thiadiazol-5-yl)-5,6-dihydro-[1,2,4]triazolo[4,3-a]pyrazin-7(8H)-yl)methanone] | 53
24 | CC(F)c1noc(-c2nnc3n2CCN(C(=O)c2ccc(F)cc2)[C@@H]3C)n1 (stereo partly drawn) [Compound 45, ((8R)-3-(3-(1-fluoroethyl)-1,2,4-oxadiazol-5-yl)-8-methyl-5,6-dihydro-[1,2,4]triazolo[4,3-a]pyrazin-7(8H)-yl)(4-fluorophenyl)methanone] | 31
25 | COc1cccc(C(=O)N2CCn3c(-c4nc(C)ns4)nnc3[C@H]2C)c1 [Compound 27, (R)-(3-methoxyphenyl)(8-methyl-3-(3-methyl-1,2,4-thiadiazol-5-yl)-5,6-dihydro-[1,2,4]triazolo[4,3-a]pyrazin-7(8H)-yl)methanone] | 24
26 | Cc1nsc(-c2nnc3n2CCN(C(=O)c2cc(F)cc(F)c2)[C@@H]3C)n1 [Compound 17, (R)-(3,5-difluorophenyl)(8-methyl-3-(3-methyl-1,2,4-thiadiazol-5-yl)-5,6-dihydro-[1,2,4]triazolo[4,3-a]pyrazin-7(8H)-yl)methanone] | 24
27 | Cc1nsc(-c2nnc3n2CCN(C(=O)c2cccc(F)c2)[C@@H]3C)n1 [Compound 15, (R)-(3-fluorophenyl)(8-methyl-3-(3-methyl-1,2,4-thiadiazol-5-yl)-5,6-dihydro-[1,2,4]triazolo[4,3-a]pyrazin-7(8H)-yl)methanone] | 20
28 | CCc1noc(-c2nnc3n2CCN(C(=O)c2ccc(F)cc2)C3C)n1 (racemic) [Compound 40, (3-(3-ethyl-1,2,4-oxadiazol-5-yl)-8-methyl-5,6-dihydro-[1,2,4]triazolo[4,3-a]pyrazin-7(8H)-yl)(4-fluorophenyl)methanone] | 24
29 | Cc1ccc(C(=O)N2CCn3c(-c4nc(C)ns4)nnc3[C@H]2C)cc1 [Compound 19, (R)-(8-methyl-3-(3-methyl-1,2,4-thiadiazol-5-yl)-5,6-dihydro-[1,2,4]triazolo[4,3-a]pyrazin-7(8H)-yl)(p-tolyl)methanone] | 51
30 | Cc1nsc(-c2nnc3n2CCN(C(=O)c2ccc(C#N)cc2)[C@@H]3C)n1 [Compound 29, (R)-4-(8-methyl-3-(3-methyl-1,2,4-thiadiazol-5-yl)-5,6,7,8-tetrahydro-[1,2,4]triazolo[4,3-a]pyrazine-7-carbonyl)benzonitrile] | 10
31 | Cc1noc(-c2nnc3n2CCN(C(=O)c2ccc(F)cc2)[C@@H]3C)n1 [Compound 28, (R)-(4-fluorophenyl)(8-methyl-3-(3-methyl-1,2,4-oxadiazol-5-yl)-5,6-dihydro-[1,2,4]triazolo[4,3-a]pyrazin-7(8H)-yl)methanone] | 12
